Measurements as given in ChEMBL document CHEMBL4270483, “Effect of Hops Derived Prenylated Phenols on TNF-α Induced Barrier Dysfunction in Intestinal Epithelial Cells” (J Nat Prod, 2017).
Calls of active or inactive are those of the source. The rule behind the calls is not given here.

Legend:
Caco-2 [1] = assay: Increase in transepithelial electrical resistance in human Caco2 cells at 10 uM pre-treated on apical side and measured after 36 to 72 hrs; type: functional, cell-based
Caco-2 [2] = assay: Inhibition of TNFalpha induced barrier dysfunctionin human Caco2 cells assessed as prevention of morphological changes in ZO1 protein at 10 uM pre-treated on apical side for 1 hr before TNFalpha stimulation on basolateral side for 48 hrs by confocal laser scanning microscopy; type: functional, cell-based
Caco-2 [3] = assay: Effect on barrier function in human Caco2 cells assessed as LY transport at 10 uM pre-treated on apical side for 1 hr and measured after 48 hrs; type: ADME, cell-based; details: caco-2, 48 h
Caco-2 [4] = assay: Inhibition of TNFalpha induced barrier dysfunctionin human Caco2 cells assessed as increase in transepithelial electrical resistance at 10 uM treated on apical side for 1 hr post TNFalpha stimulation on basolateral side for 24 hrs and measured after 72 hrs by cellZScope monitoring device based assay; type: functional, cell-based
Caco-2 [5] = assay: Cytotoxicity in human Caco2 cells assessed as reduction in ATP metabolism at 1 to 100 uM incubated for 24 hrs by cell-titer-Glo luminescent cell viability assay; type: ADME, cell-based; details: caco-2, 24 h
Caco-2 [6] = assay: Inhibition of TNFalpha induced barrier dysfunctionin human Caco2 cells assessed as increase in transepithelial electrical resistance at 10 uM pre-treated on apical side for 1 hr before TNFalpha stimulation on basolateral side for 72 hrs by cellZScope monitoring device based assay; type: functional, cell-based
Caco-2 [7] = assay: Cytotoxicity in human Caco2 cells assessed as reduction in ATP metabolism at 1 to 50 uM incubated for 24 hrs by cell-titer-Glo luminescent cell viability assay; type: ADME, cell-based; details: caco-2, 24 h
Caco-2 [8] = assay: Cytotoxicity in human Caco2 cells assessed as reduction in ATP metabolism at 100 uM incubated for 24 hrs by cell-titer-Glo luminescent cell viability assay; type: ADME, cell-based; details: caco-2, 24 h
Caco-2 [9] = assay: Cytotoxicity in human Caco2 cells assessed as reduction in ATP metabolism at 50 to 100 uM incubated for 24 hrs by cell-titer-Glo luminescent cell viability assay; type: ADME, cell-based; details: caco-2, 24 h
Caco-2 [10] = assay: Stimulation of growth in human Caco2 cells assessed as […] in ATP metabolism at 10 uM incubated for 24 hrs by cell-titer-Glo luminescent cell viability assay; type: functional, cell-based

SMILES	Activity (Caco-2 [1])	inhibition (Caco-2 [2])	Activity (Caco-2 [3])	inhibition (Caco-2 [4])	Activity (Caco-2 [5])	inhibition (Caco-2 [6])	Activity (Caco-2 [7])	Activity (Caco-2 [8])	Activity (Caco-2 [9])	Activity (Caco-2 [10])
CC(C)=CCc1c(O)cc(O)c2c1O[C@H](c1ccc(O)cc1)CC2=O	Active	Active	Non-Toxic	Active	Non-Toxic	Active				
CC(C)=CCc1c(O)cc2c(c1O)C(=O)CC(c1ccc(O)cc1)O2 (centres undefined)	Active		Non-Toxic	inactive		Active	Non-Toxic	18%		
COc1cc(O)c(CC=C(C)C)c(O)c1C(=O)/C=C/c1ccc(O)cc1 [XANTHOHUMOL]	Active	inactive	Non-Toxic	inactive		inactive			55.3%	Active
